PMC5632533, “Mechanisms of action and in vivo antibacterial efficacy assessment of five novel hybrid peptides derived from Indolicidin and Ranalexin against Streptococcus pneumoniae” (PeerJ, 2017)

What was measured:
[1] = tested on: ICR (CD-1) mice; test: In vivo toxicity in mice (SC, IN, IP routes); parameters: Aspartate aminotransferase, AST / Alanine transaminase, ALT / Alkaline phosphatase, ALP / Creatinine / Urea / Total bilirubin: unit not given here; conditions: for Eosinophil / Erythrocytes, RBC / Granulocytes / Hematocrit, HCT / Hemoglobin Hgb / Lymphocytes / Mean corpuscular haemoglobin concentration, MCHC / Mean corpuscular haemoglobin, MCH / Mean corpuscular volume, MCV / Monocytes / White blood cells, WBC / platelet Counts, PLT / Alanine transaminase, ALT / Alkaline phosphatase, ALP / Aspartate aminotransferase, AST / Creatinine / Total bilirubin / Urea: 3 doses (1hr, 12hr, 24hr), RN7-IN9, RN7-IN6 10 mg/kg, day 7, mean±SD, 4 mice; for Alanine transaminase, ALT / Alkaline phosphatase, ALP / Aspartate aminotransferase, AST / Creatinine / Total bilirubin / Urea: serum
Experimental: In this study, 4-week old male, pathogen free ICR (CD-1) mice were purchased from InVivos (Lim Chu Kang, Singapore) and used to assess the in vivo toxicity and antibacterial efficacy of the novel peptides, as these animals are by far the most commonly used model for the study of pneumococcal disease ([Chiavolini, Pozzi & Ricci, 2008]). The mice were kept in ventilated polycarbonate cages (12 h light/dark cycle, 20 ± 2 °C and 55% relative humidity). All mice were familiarized for seven days before any experimental procedure and were given unlimited pellets and water ad libitum. All animal experimentations were conducted according to the guidelines approved by Faculty of Medicine Institutional Animal Care and Use Committee (FOM IACUC), University of Malaya (ethics Reference no. : 2013-07-15/MMBTR/SDS).
In order to evaluate the possible toxic effects correlated to peptides administered in mice, four hybrid peptides RN7-IN10, RN7-IN9, RN7-IN8 and RN7-IN6 were chosen for in vivo toxicity assessment, due to their promising in vitro antibacterial activity ([Jindal et al., 2015]). Mice were separated into four groups (each with four mice) and were injected with respective peptides at 1 h, 12 h, and 24 h (three-dose regimen) via IP, SC, and IN administration routes. The hybrid peptides were first administered at high doses (100 mg/kg for IP route, 100 mg/kg for SC routes and 20 mg/kg for IN route). Any abnormal behavior was recorded and survival of mice was noted as well. In case adverse effects such as high physical stress, severe lethargy, physical inactiveness, and/or death were detected, lower graded doses were given. All the administered mice were monitored for seven days or until death occurred. At day seven post administration, all animals were sacrificed and blood and organs were collected. Untreated mice were used as a control group.
Mice used to evaluate the in vivo toxicity and antibacterial activity of the hybrid peptides using the subcutaneous (SC) and intranasal (IN) administration routes, were anesthetized using a combination of a standard dose of xylazine (ilium xylazil-20, 10 mg/kg) and ketamine (Narketan®-10, 100 mg/kg) through intraperitoneal (IP) injection. After seven days of treatment, the in vivo toxicity and antibacterial efficacy experiments were ended and the surviving mice were anesthetized. Blood samples for Hematological and biochemical analysis were collected via cardiac puncture using a 25G syringe (BD bioscience, San Jose, CA, USA). Whole blood for heamatological analysis was collected in 500 µl dipotassium EDTA microtainer tubes (BD Bioscience, USA). About 500 µl of blood collected an eppedorff tube and centrifuged at 8000 rpm for 5 min and then the serum was transferred into a new 1.5 ml tube for biochemistry analysis. The mice were then euthanized by cervical dislocation, dissected and the following organs were collected for histopathology evaluation: lung, kidney, brain, liver and spleen.
For whole blood analysis, the parameters were number of red cells (RBC), number of white cells (WBC), lymphocytes, monocytes, eosinophil, granulocytes, haemoglobin (Hgb), mean corpuscular volume (MCV), hematocrit (HCT), platelet Counts (PLT), Mean corpuscular haemoglobin (MCH) and corpuscular haemoglobin concentration (MCHC). For biochemistry analysis, the parameters were alanine transaminase (ALT), creatinine, alkaline phosphatase (ALP), aspartate aminotransferase (AST), total bilirubin and urea.
The following organs were collected from all the dissected mice: lung, kidney, brain, spleen, and liver. All tissues were fixed in 10% (v/v) buffered formalin and processed for paraffin embedding. Hematoxylin–eosin (HE) was used to stain the histological sections at the histopathology laboratory, Veterinary Laboratory Service Unit, University Putra Malaysia (UPM).

[2] = tested on: Streptococcus pneumoniae; conditions: 30 pneumococcal clinical isolates; earlier study; ref Jindal et al., 2015; cited from earlier work
Description: Table 1 Sequences and physicochemical properties of the template and hybrid AMPs. | column: MIC^a || One of the advantageous alternatives to today’s antibiotics is antimicrobial peptides (AMPs) ([Deslouches et al., 2013]; [Sánchez-Vásquez et al., 2013]). AMPs are synthesized by almost all living beings as the first line of defense in their immune system against microbial infection. Many aspects favor AMPs over traditional antibiotics: a broad range of antimicrobial activity against pathogenic micro-organisms (including viruses, parasites, bacteria, and fungi), microbial pathogens are less efficient in developing resistance against AMPs, as killing take place in a short contact time and AMPs c ...

[3] = IN, head doses: RN7-IN10, RN7-IN8 20 mg/kg
[4] = SC, head doses: RN7-IN10, RN7-IN8 20 mg/kg

For “FLGGLIKWPWWPWRR-NH2 [RN7-IN8, hybrid peptide of ranalexin (residues 1-7) and indolicidin (residues 6-13)]”, the Eosinophil [1, 3] was 4.3±3.6%, the “Erythrocytes, RBC” value [1, 3] was 8.95±0.53 10^6/mm^3 and the Granulocytes [1, 3] was 52.9±9.54%. The “Hematocrit, HCT” value [1, 3] was 44.8±2.9%, the “Hemoglobin Hgb” value [1, 3] was 14.42 ± 0.76 g/dL and the Lymphocytes [1, 3] was 45.6±14.31%. The “Mean corpuscular haemoglobin concentration, MCHC” value [1, 3] was 32.22 ± 0.4 g/dL, the “Mean corpuscular haemoglobin, MCH” value [1, 3] was 16.12 ± 0.33 pg and the “Mean corpuscular volume, MCV” value [1, 3] was 50.25±1.25 µm^3. For the same substance, the Monocytes [1, 3] was 3.22±0.68%, the “White blood cells, WBC” value [1, 3] was 3.95±0.54 10^3/mm^3 and the “platelet Counts, PLT” value [1, 3] was 612±130.37 10^3/mm^3. The Eosinophil ([1]; IP, RN7-IN10, RN7-IN8 20 mg/kg) was 2.34±0.63%, the “Erythrocytes, RBC” value ([1]; IP, RN7-IN10, RN7-IN8 20 mg/kg) was 8.14±0.34 10^6/mm^3 and the Granulocytes ([1]; IP, RN7-IN10, RN7-IN8 20 mg/kg) was 53.38±12.35%. For the same substance, the “Hematocrit, HCT” value ([1]; IP, RN7-IN10, RN7-IN8 20 mg/kg) was 42.73±1.66%, the “Hemoglobin Hgb” value ([1]; IP, RN7-IN10, RN7-IN8 20 mg/kg) was 14.55 ± 0.17 g/dL and the Lymphocytes ([1]; IP, RN7-IN10, RN7-IN8 20 mg/kg) was 53.7±8.22%. The “Mean corpuscular haemoglobin concentration, MCHC” value ([1]; IP, RN7-IN10, RN7-IN8 20 mg/kg) was 34.17 ± 1.13 g/dL, the “Mean corpuscular haemoglobin, MCH” value ([1]; IP, RN7-IN10, RN7-IN8 20 mg/kg) was 17.92 ± 0.56 pg and the “Mean corpuscular volume, MCV” value ([1]; IP, RN7-IN10, RN7-IN8 20 mg/kg) was 52.75±0.95 µm^3. The Monocytes ([1]; IP, RN7-IN10, RN7-IN8 20 mg/kg) was 2.77±0.88%, the “White blood cells, WBC” value ([1]; IP, RN7-IN10, RN7-IN8 20 mg/kg) was 4.18±0.36 10^3/mm^3 and the “platelet Counts, PLT” value ([1]; IP, RN7-IN10, RN7-IN8 20 mg/kg) was 472.5±100.52 10^3/mm^3. For the same substance, the “maximum IP dose at which no signs of stress or abnormal behavior were evident (non-toxic dose)” value ([1]; IP, doses at 1 h, 12 h, 24 h, no death up to seven days) was 20 mg/kg, the Eosinophil [1, 4] was 2.42±0.61% and the “Erythrocytes, RBC” value [1, 4] was 9.17±0.83 10^6/mm^3. For the same substance, the Granulocytes [1, 4] was 58.62±9.82%, the “Hematocrit, HCT” value [1, 4] was 46.15±3.69% and the “Hemoglobin Hgb” value [1, 4] was 15.82 ± 1.11 g/dL. For the same substance, the Lymphocytes [1, 4] was 43.85±6.28%, the “Mean corpuscular haemoglobin concentration, MCHC” value [1, 4] was 34.38 ± 0.52 g/dL and the “Mean corpuscular haemoglobin, MCH” value [1, 4] was 17.32 ± 0.49 pg. The “Mean corpuscular volume, MCV” value [1, 4] was 50.25±0.95 µm^3, the Monocytes [1, 4] was 1.92±0.15% and the “White blood cells, WBC” value [1, 4] was 3.47±0.48 10^3/mm^3. The “platelet Counts, PLT” value [1, 4] was 445.75±47.21 10^3/mm^3, the “Alanine transaminase, ALT” value [1, 3] was 44.5±18.9 and the “Alkaline phosphatase, ALP” value [1, 3] was 128.5±21.7. For the same substance, the “Aspartate aminotransferase, AST” value [1, 3] was 176.3±31.91, the Creatinine [1, 3] was 40.56±1.74 and the Total bilirubin [1, 3] was 2.21±0.18. For the same substance, the Urea [1, 3] was 8.89±1.30, the “Alanine transaminase, ALT” value ([1]; IP, RN7-IN10, RN7-IN8 20 mg/kg) was 62.1±23.84 and the “Alkaline phosphatase, ALP” value ([1]; IP, RN7-IN10, RN7-IN8 20 mg/kg) was 115.4±34.9. For the same substance, the “Aspartate aminotransferase, AST” value ([1]; IP, RN7-IN10, RN7-IN8 20 mg/kg) was 148.9±21.51, the Creatinine ([1]; IP, RN7-IN10, RN7-IN8 20 mg/kg) was 39.2±3.81 and the Total bilirubin ([1]; IP, RN7-IN10, RN7-IN8 20 mg/kg) was 1.98±0.11. The Urea ([1]; IP, RN7-IN10, RN7-IN8 20 mg/kg) was 10.34±2.36, the “Alanine transaminase, ALT” value [1, 4] was 50±5.49 and the “Alkaline phosphatase, ALP” value [1, 4] was 134±8.24. The “Aspartate aminotransferase, AST” value [1, 4] was 170.75±14.52, the Creatinine [1, 4] was 43.4±0.8 and the Total bilirubin [1, 4] was 1.84±0.12. For the same substance, the Urea [1, 4] was 9.61±3.02 and the “MIC, minimum inhibitory concentration” value [2] was 7.81 to 15.62 µg/mL.
